The target in the assay is T1, DCLK1-FL1Δ WT (Homo sapiens, UniProt O15075).
T1 sequence (O15075 50-686 isoform O15075-2): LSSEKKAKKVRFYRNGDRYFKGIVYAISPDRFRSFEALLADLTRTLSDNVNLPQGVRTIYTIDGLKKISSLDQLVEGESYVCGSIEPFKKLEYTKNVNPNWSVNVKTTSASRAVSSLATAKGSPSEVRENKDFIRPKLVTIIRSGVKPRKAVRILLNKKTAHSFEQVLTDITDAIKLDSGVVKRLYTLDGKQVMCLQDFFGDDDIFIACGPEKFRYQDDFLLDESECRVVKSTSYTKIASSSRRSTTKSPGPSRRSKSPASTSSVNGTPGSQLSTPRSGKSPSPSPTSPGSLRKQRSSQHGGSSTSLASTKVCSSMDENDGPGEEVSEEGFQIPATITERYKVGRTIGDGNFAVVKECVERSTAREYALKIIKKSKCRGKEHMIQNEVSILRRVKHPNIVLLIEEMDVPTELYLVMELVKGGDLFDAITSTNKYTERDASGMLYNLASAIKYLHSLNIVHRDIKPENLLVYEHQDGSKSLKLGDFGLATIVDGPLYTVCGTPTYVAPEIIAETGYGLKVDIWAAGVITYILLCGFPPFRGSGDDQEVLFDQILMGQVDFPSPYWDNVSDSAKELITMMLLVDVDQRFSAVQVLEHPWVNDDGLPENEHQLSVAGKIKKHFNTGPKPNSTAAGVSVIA
The assay is described as follows: SPR binding to immobilised DCLK1-FL1Δ WT (phosphorylated). The note with it: for Kd: SPR, 18 °C, DCLK1 FL1Δ WT immobilised, mean ± SEM. As to the method: SPR studies were carried out on a Biacore 2000 instrument (Cytivia). Proteins were immobilised at 25 °C using standard amine coupling to a CM5 chip (Cytivia) in immobilisation buffer consisting of 10 mM HEPES pH 7.4, 150 mM NaCl, 1 mM TCEP, 0.005% Tween P20, 1% (v/v) DMSO. To the active flow, cells were coupled either DCLK1-FL1Δ D511N or WT to a final density of approximately 7000 RU, followed by surface deactivation with 1 M ethanolamine. For each protein, coupling was performed at a concentration of 2 µM protein in 10 mM sodium acetate buffer pH 4.0, 1% (v/v) DMSO final, in the presence 10 µM of the moderate affinity compound FMF-03-149-01 (IC50 ~400 nM)[28] to help to stabilise the kinase domain during immobilsiation at low pH. A blank immobilisation was performed on the reference flow cell.
Binding experiments were performed at 18 °C in running buffer consisting of 20 mM HEPES, pH 7.4, 150 mM NaCl, 1 mM tris(2-carboxyethyl)phosphine (TCEP), 0.005% (v/v) Tween-P20, and 2% (v/v) DMSO. Compounds (10 mM stocks in 100% DMSO) were diluted in DMSO to 500 µM (DCLK1-NEG) or 25 µM (all other compounds) then in running buffer (without DMSO) to achieve the starting concentration with a final DMSO concentration of 2% (v/v). Samples were then serially titrated in running buffer containing 2% (v/v) DMSO to prepare each final concentration series (seven-point, three-fold serial dilution, 10 µM−13.7 nM for DCLK1-NEG, or 500−0.68 nM for all other compounds). Solutions were injected in multi-cycle format (in duplicate) without regeneration (contact time 80 s, flow rate 75 μL/min, dissociation time 600 s), with an extra wash (50% DMSO) after each injection.
Steady-state/kinetic binding data were fitted using the S200 BIAevaluation software (GE Healthcare). Sensorgrams from reference surfaces and blank injections were subtracted from the raw data (double-referencing), followed by solvent correction. Kinetic rate constants (kon and koff values) were obtained by fitting to 1:1 Langmuir binding model. Reported binding data represent mean ± SEM for three or four independent experiments. The dissociative half-life life (t1/2) for each inhibitor complex with DCLK1 was calculated from the fitted dissociation rate constant (koff), according to the equation 1 (t1/2 = ln(2)/koff.)
In general terms: Surface plasmon resonance follows binding to a sensor surface in real time, without labels.

Read-outs that look alike come from different tables or passages of the source. Marks after values point to notes of the source that are not given here.

Usually Kd stands for the free concentration of one partner at which half of the binding sites on the other are occupied at equilibrium, for simple one-to-one binding. Usually koff stands for the first-order rate constant of dissociation. On to `COc1cc(N2CCN(C)CC2)ccc1Nc1ncc2c(n1)N(C)c1ccccc1C(=O)N2CC(F)(F)F` [DCLK1-IN-1], for which the “kon, kinetic fitting” value is reported as 6 ± 2 1/Ms (x 10^5). Moreover, the Kd (read-out: KD, kinetic fitting (1:1 binding model)) is 83 ± 22 nM. Also, the Kd (read-out: KD, steady state fitting) was 145 ± 35 nM. In addition, the koff (read-out: koff, kinetic fitting) was 0.04 ± 0.01 s⁻¹.
